Results taken from paper PMC3341351, “Down-Regulation of GABAA Receptor via Promiscuity with the Vasoactive Peptide Urotensin II Receptor. Potential Involvement in Astrocyte Plasticity” (PLoS ONE, 2012).

Key:
[1] = system: GABAAR co-expressed with UT^HA 370; test: Patch-clamp of Iso-evoked current in CHO co-expressing GABAAR and truncated UT^HA 370; assay type: cell-based; conditions: hUII 10^−8 M, 1 min, Iso 10^−4 M, 2 s
From the text: (§1) For UT epitope-tagged with HA (UT^HA), or c-myc (UT^c-myc), human UT receptor cDNA inserted into pcDNA3.1 (Ressource Center, MI, USA) was amplified and PCR products were subcloned using the EcoRI and XhoI sites of pCMV-HA or pCMV-c-myc. Mutant UT receptor cDNAs were constructed by oligonucleotide-directed mutagenesis (Expand High Fidelity PCR System; Roche) using the human UT receptor cDNA inserted into pcDNA3.1 as a template. Two sets of forward and reverse oligonucleotides were used (Table S2) to introduce stop codons in frame of Leu370, Phe351, Gly332 and Thr319 (to generate UT371, UT351, UT332 and UT319, respectively). PCR products were subcloned using the EcoRI and XhoI sites of pCMV-HA after digestion by the same restriction enzymes. Mutagenesis was confirmed by automated nucleotide sequencing.
(§2) The conventional whole-cell configuration of the patch-clamp technique was used to study the GABA-gated currents in astrocytes and granule neurons, UT stably transfected CHO, CHO-UT, and CHO transiently transfected with diverse variants of UT and GABAAR subunits. After 24-h transfection, cell culture coverslips were placed in a small chamber (1.5 ml) on a stage of a right microscope DMLFSA (Leica, Heidelberg, Germany) and superfused continuously with the following bath solution containing (in mM): NaCl, 150; KCl, 2.5; HEPES, 5; CaCl2, 2; MgCl2, 1; glucose, 10 (pH 7.4 adjusted with NaOH). […]

[2] = system: GABAAR co-expressed with UT^HA 351, UT^HA 332 or UT^HA 319; test: Patch-clamp of Iso-evoked current in CHO co-expressing GABAAR and shorter truncated UT (UT^HA 351, UT^HA 332, UT^HA 319); assay type: cell-based; conditions: hUII 10^−8 M, 1 min; Iso 10^−4 M, 2 s
From the text: as §1, §2

[3] = system: UT in human U87 glioma; test: Cell surface ELISA of UT in U87 glioma; assay type: cell-based; conditions: hUII 10^−8 M, 30 min, absence or presence of the UT C-terminus
Experimental: The human cell line from glioblastoma U87 was obtained from the American Type Culture Collection (LGC Standards, Molsheim, France). U87 cells were maintained in DMEM containing 10% FBS and 1% sodium pyruvate. NHA-Astrocytes (Lonza, Walkersville, MD, USA) were cultivated in DMEM culture medium supplemented with 2 mM glutamine, 5 mM HEPES, 1% non essential amino acids, 1% sodium pyruvate, B27, 25 ng/ml EGF, 1% of the antibiotic-antimycotic solution and 10% FBS. All cells were incubated at 37°C in a humidified atmosphere containing 5% CO2. Culture media were replaced every three days.
Cells were plated at 50 000 cells/well in 96-well plates coated with 0.1 mg/ml poly-L-ornithine (Sigma-Aldrich). […] Cells were fixed with 4% PFA in PBS for 5 min at RT, washed in PBS, and then permeabilized in 0.05% triton X100 (only for permeabilized cells) and non specific binding were blocked with PBS containing 1% FBS for 30 min at RT. […] The cells were washed four times with PBS, a colorimetric alkaline phosphatase substrate was added (SuperSignal ELISA, Thermo scientific, Fisher) and the resulting color reaction was measured using a Viktor multilabel plate reader (PerkinElmer, Courtaboeuf, France). Background absorbance from samples transfected with non-tagged receptors or from cells without first antibodies were systematically measured. […]

[4] = system: α2β1 GABAAR co-expressed with human UT; test: Patch-clamp of Iso-evoked current in CHO-UT expressing α2β1 GABAAR; assay type: cell-based; conditions: hUII 10^−13 to 10^−7 M; Iso 10^−4 M, 2 s; −60 mV
[5] = system: cultured rat cortical astrocytes; set-up: method as in PMID 16942596, PMID 20192922; conditions: ref [41], [42]; cited from earlier work

| Substance | hUII-induced fast short-term inhibition with UT^HA 370 [1] | hUII-induced long-term inhibition with UT^HA 370 ([1]; washout) | hUII effect on GABAAR activity with shorter truncated UT forms [2] | UT levels at the cell surface, U87 [3] | Inhibitory effect on Iso-evoked current, α2β1 [4] | Effect on cell proliferation [5] |
| --- | --- | --- | --- | --- | --- | --- |
| ETPDCFWKYCV (disulfide) [hUII, human urotensin II, synthesized by solid phase methodology] | totally abolished | delayed, and significantly altered | totally failed to alter the GABAAR activity | remained unchanged | totally ineffective |  |
| UII: Urotensin II, species not stated at that place (rUII in astrocytes, hUII in CHO and human cells) |  |  |  |  |  | stimulates cell proliferation |
